Assay results: US7342018B2, “Urokinase inhibitors and uses thereof” (Wilex AG, priority 1998, dated 2008)
pKi: −log10 of the molar value. Several values for one entry are separate records, joined by “and”; a condition that tells them apart may be missing. Equal values may be shown once.

Key:
[1] = system: BN-472 rat mammary carcinoma; experiment: BN-472 rat mammary carcinoma model, single agent and combination with cytotoxics (Example 11)
Description: WX-UK1 was dissolved in 5% w/v of D-mannitol to the appropriate dosage and administered once daily or twice weekly either subcutaneously (s.c.) or intraperitonally (i.p.).
Epirubicin (0.75-3 mg/kg body wight), paclitaxel (5-7.5 mg/kg) or 5-FU (20 and 40 mg/kg) was given once weekly by i.v. injection into the external jugular vein.
Control rats received the vehicle 5% w/v of D-mannitol once daily s.c.
A donor rat bearing a tumor of 20×20 mm was sacrificed, the tumor harvested ant the cortex part was sliced into cubes of approximately 10 mm^3 and the transplated orthotopically under the mammary fad pads of female Brown Norway rats.
Treatment was started three or six days (5-FU experiment) after tumor inoculation. Each treatment group consisted of 15 to 21 rats.
Tumor load is plotted as the average±standard error of the mean (SEM).
Tumor, organ weights as well as lung foci counts are presented in Box-Whisker graphs. […] Whiskers extend to the extreme lower 5th and upper 95th percentiles of values. Dots represent individual data.
P-values represent significance levels of pairwise comparisons of treatment groups versus vehicle control. For combination therapy experiments the P-values for the comparison of a cytostatic mono-therapy versus the combination therapy is given.

Plasmin = biological target: T1, Plasmin (Homo sapiens, UniProt P00747); experiment: In vitro inhibition of serine proteases: plasmin; assay type: biochemical
T1 construct: uPA mediates the proteolytic cleavage of plasminogen to give plasmin
Description: Ki values were determined according to Dixon by linear regression using a computer program.

[2] = Biodistribution of the inhibitor in rats (HPLC of tissue extracts); assay type: in vivo, rat; settings: for concentration in tracheal lymph nodes: two independent experiments, hydrochloride
Description: The biodistribution of the inhibitor was determined by two independent experiments in tissue extracts of rats which had been treated once a day with 1 mg/kg i.p. of inhibitor i.p. over a period of 5 or 10 days. For the lysis, in each case 100 mg of tissue were mechanically comminuted and mixed with 200 μl of 1% Triton X-100 in physiological NaCl solution. After adding 400 μl of ethanol, the mixture was sonicated for 1 min. The tissue extract was centrifuged at 12,000×g for 15 min. For prepurification, the supernatant was applied to a C18 Silica Reversed Phase column (Sep-Pak® cartridge C18, 1 ml Water, Eschborn, Germany), equilibrated with 1 ml of methanol and 1 ml of water, washed successively with 2×1 ml H2O, 1 ml 10% methanol, 1 ml H2O, 1 ml 5% acetonitrile, 0.04% perchloric acid and 1 ml H2O and eluted with 500 μl of 75% acetonitrile, 0.04% perchloric acid. HPLC analysis was carried out on a reversed phase C18 silica column with a 5-55% strength acetonitrile gradient containing 0.04% perchloric acid.

[3] = system: BN-472 breast cancer tumor; experiment: Breast cancer model in rats (Example 7); assay type: in vivo; settings: for average tumor weights at the end of the treatment, reduced to % of vehicle-treated control / mean weights of the axillary lymph nodes, reduced to % of control / number of lung foci, reduced to % of control: 1 mg/kg daily
Description: 10-25 mm^3 of BN-472 breast cancer tumor fragments from rats were transplanted into female brown Norwegian rats from 6 to 7 weeks old, subcutaneously and orthotopically under the subcutaneous fat of the mammary gland (Day 0). The treatment of the animals was started intraperitoneally 24 hours after tumor inoculation. Each group consisted of eight animals. The control group received only the injection solution (100 μl of a 10% ethanol/saline (0.9% NaCl) solution). A dose of 1 mg/kg body weight was intraperitoneally administered on a daily basis to the comparative group of the naphthyl derivative. (B) and to the therapy group of the inventive uPA inhibitor (A). The treatment was carried out over a period of 4 weeks.
The dimensions of the subcutaneous tumors and the weight of the animals were determined weekly. At the end of the treatment the animals were sacrificed and tumor weights, organ weights and the number of metastases in relevant tissues were determined.
The experiments described in sections A and B were repeated with the inhibitor administered in a different way. For this, the inhibitor was administered subcutaneously in the breast carcinoma model (n=9) and intraperitoneally in the pancreatic adenocarcinoma model (n=8) without changing the daily dose. The results of these repeat experiments corresponded to the results already discussed, both in tendency and extent.

[4] = Phase I clinical trial in healthy male volunteers (WX/50-001); assay type: in vivo, human; settings: for tolerability: all dose levels
Description: In the first clinical trial with WX-UK1 (WX/50-001) the drug was investigated in a double-blind, randomized, three-way cross-over, placebo controlled phase I study focussing on pharmacokinetics, pharmacodynamics, safety, and tolerability of increasing doses of WX-UK1.
In this study six ascending i.v. Doses of WX-UK1 in the range of 0.01 to 0-3 mg/kg were administered and each dose was given to groups of six healthy male volunteers.

[5] = system: human ovarian carcinoma cells OV-MZ-6; experiment: Cytotoxicity determination (tetrazolium salt conversion, Promega); assay type: cell-based
From the text: To determine cell proliferation/cytotoxicity a commercially available test was used (Promega) which is based on the cellular conversion of a tetrazolium salt. The colored product resulting from this reaction can be quantified by means of an ELISA spectrometer (ICN flow). The synthetic inhibitor (open circles) had no effect on the growth of the human ovarian carcinoma cells OV-MZ-6 (FIG. 1) when compared with the solvent alone (closed circles). Thus, the inventive uPA inhibitor is not cytotoxic in pharmacologically effective concentrations up to 40 μM.

[6] = concluded from plasma vs tissue concentrations

T1 sequence (P00747 581-810 limits assumed, species assumed): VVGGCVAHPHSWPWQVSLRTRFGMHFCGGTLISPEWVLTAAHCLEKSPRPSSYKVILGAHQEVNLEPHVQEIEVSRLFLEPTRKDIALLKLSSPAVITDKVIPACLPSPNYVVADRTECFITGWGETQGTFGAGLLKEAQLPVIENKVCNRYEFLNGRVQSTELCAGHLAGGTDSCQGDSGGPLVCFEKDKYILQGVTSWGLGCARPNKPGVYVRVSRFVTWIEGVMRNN
T1 sequence (P00747 97-580 partner limits assumed, species assumed): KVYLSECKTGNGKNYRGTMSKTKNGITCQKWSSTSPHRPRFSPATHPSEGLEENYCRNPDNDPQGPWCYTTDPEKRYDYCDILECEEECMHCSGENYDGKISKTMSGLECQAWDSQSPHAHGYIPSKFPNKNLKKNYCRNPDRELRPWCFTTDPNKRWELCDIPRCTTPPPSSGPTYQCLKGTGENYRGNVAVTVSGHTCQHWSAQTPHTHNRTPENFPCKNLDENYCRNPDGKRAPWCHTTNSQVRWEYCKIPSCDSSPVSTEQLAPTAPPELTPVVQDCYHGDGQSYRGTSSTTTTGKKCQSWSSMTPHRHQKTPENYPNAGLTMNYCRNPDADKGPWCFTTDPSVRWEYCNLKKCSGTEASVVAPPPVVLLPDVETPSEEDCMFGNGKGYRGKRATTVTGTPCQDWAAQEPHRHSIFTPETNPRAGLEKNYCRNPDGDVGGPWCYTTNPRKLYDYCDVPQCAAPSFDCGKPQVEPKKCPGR

CCOC(=O)N1CCN(C(=O)[C@H](Cc2cccc(C(=N)N)c2)NS(=O)(=O)c2c(C(C)C)cc(C(C)C)cc2C(C)C)CC1.Cl [uPA inhibitor, Nα-2,4,6-Triisopropylphenylsulfonyl-(L)-3-amidinophenylalanine 4-ethoxycarbonylpiperazide hydrochloride]
anti-metastatic effects in combination therapies (lymph nodes weight, macroscopic lung foci number) ([1]; WX-UK1 and the cytostatic agents): additional anti-metastatic effects
anti-metastatic effects in combination ([1]; combined with either epirubicin and in particular with 5-FU): statistically significant additive anti-metastatic effects
number of macroscopically detectable lung foci ([1]; compared with 5-FU): equally effective
number of macroscopically detectable lung foci ([1]; compared with epirubicin or paclitaxel): more effectively reduced
anti-tumor effects (tumor size development, final tumor weight) ([1]; daily administration): Dose-dependent anti-tumor effects
metastatic endpoints in combination ([1]; plus epirubicin, paclitaxel or 5-FU): tended to provide additive benefits
reducing lymphogenic spread as determined by lymph-node weight ([1]; single agent, compared with epirubicin, paclitaxel or 5-FU alone): more or similarly active
pKi (Plasmin): 6.41
Content Bile ([2]; 1 mg/kg i.p. 5 days): 1.96 µg/mL
Content Brain ([2]; 1 mg/kg i.p. 5 days): <0.5 µg/g
Content Fat/kidney ([2]; 1 mg/kg i.p. 5 days): 0.82 µg/g
Content Heart ([2]; 1 mg/kg i.p. 5 days): <0.5 µg/g
Content Kidney ([2]; 1 mg/kg i.p. 5 days): 2.67 µg/g
Content Liver ([2]; 1 mg/kg i.p. 5 days): 2.85 µg/g
Content Lung ([2]; 1 mg/kg i.p. 5 days): 3.70 µg/g
Content Lymph nodes/trachea ([2]; 1 mg/kg i.p. 5 days): 7.45 µg/g
Content Muscle ([2]; 1 mg/kg i.p. 5 days): 0.74 µg/g
Content Plasma ([2]; 1 mg/kg i.p. 5 days): 0.008 µg/mL
Content Spleen ([2]; 1 mg/kg i.p. 5 days): 2.02 µg/g
Content lymph nodes/axillary ([2]; 1 mg/kg i.p. 5 days): 1.97 µg/g
Content lymph nodes/knee ([2]; 1 mg/kg i.p. 5 days): 7.83 µg/g
Content Bile ([2]; 1 mg/kg i.p. 10 days): 1.75 µg/mL
Content Brain ([2]; 1 mg/kg i.p. 10 days): <0.5 µg/g
Content Fat/kidney ([2]; 1 mg/kg i.p. 10 days): 1.0 µg/g
Content Heart ([2]; 1 mg/kg i.p. 10 days): 1.09 µg/g
Content Kidney ([2]; 1 mg/kg i.p. 10 days): 2.48 µg/g
Content Liver ([2]; 1 mg/kg i.p. 10 days): 2.08 µg/g
Content Lung ([2]; 1 mg/kg i.p. 10 days): 1.81 µg/g
Content Lymph nodes/trachea ([2]; 1 mg/kg i.p. 10 days): 16.38 µg/g
Content Muscle ([2]; 1 mg/kg i.p. 10 days): <0.5 µg/g
Content Plasma ([2]; 1 mg/kg i.p. 10 days): 0.035 µg/mL
Content Spleen ([2]; 1 mg/kg i.p. 10 days): 2.48 µg/g
Content lymph nodes/axillary ([2]; 1 mg/kg i.p. 10 days): 2.74 µg/g
Content lymph nodes/knee ([2]; 1 mg/kg i.p. 10 days): 3.8 µg/g
plasma concentrations relative to the mean tissue concentrations ([2]; 24 h after the last i.p. administration): one to two orders of magnitude below
concentration in tracheal lymph nodes ([2]; after 5 days of administration): 5.3 µg/g and 7.5 µg/g
concentration in tracheal lymph nodes ([2]; after 10 days of administration): 21.6 µg/g and 16.4 µg/g
plasma protein binding [2, 6]: low plasma protein binding
tissue affinity [2, 6]: high tissue affinity
accumulation in lymph nodes ([2]; rat, in vivo): noticeable accumulation
weights of lung, liver, kidney and spleen ([3]; 1 mg/kg i.p. daily, 4 weeks, compared to control animals): unchanged
weight of the primary tumor ([3]; 1 mg/kg i.p. daily, 4 weeks, p=0.003 vs naphthyl derivative (B) and control): significant reduction
weight of the axillary lymph nodes ([3]; 1 mg/kg i.p. daily, 4 weeks, p=0.005 vs naphthyl derivative (B) and control): significant reduction
toxicity (body weight increase, organ weights) ([3]; breast and pancreatic tumor models in rats, inhibitor-treated vs vehicle-treated groups): no indications of any considerable toxicity
average tumor weights at the end of the treatment, reduced to % of vehicle-treated control ([3]; i.p.): 23%
mean weights of the axillary lymph nodes, reduced to % of control ([3]; i.p.): 27%
number of lung foci, reduced to % of control ([3]; i.p.): 9%
number of metastatic lung foci ([3]; rat breast cancer model, vs vehicle-treated controls): substantially reduced
sizes of subcutaneous tumors ([3]; rat pancreatic and breast cancer models, vs vehicle-treated controls): reduced
average tumor weights at the end of the treatment, reduced to % of vehicle-treated control ([3]; s.c.): 37%
mean weights of the axillary lymph nodes, reduced to % of control ([3]; s.c.): 48%
number of lung foci, reduced to % of control ([3]; s.c.): 32%
changes in vital signs, ECG parameters, general safety laboratory parameters and adverse event profiles ([4]; attributable to the study drug): No changes
mean increases of coagulation parameters PT, aPTT and TT ([4]; doses of 0.05 mg/kg and higher, end of infusion, 0-5% with placebo): 6-13%
dose proportionality in PK studies ([4]; healthy volunteers): good dose proportionality
systemic and local safety profile ([4]; healthy volunteers): advantageous systemic and local safety profile
bleeding times ([4]; human, in vivo): unchanged
drug-induced hemolysis ([4]; human, in vivo): no indication
time for coagulation parameters to return to baseline ([4]; human, in vivo): ≤ 15 min
time of maximum plasma concentrations ([4]; i.v. infusion (FIG. 10)): at the end of the 30 min. infusion period
mean terminal half lives ([4]; i.v. infusion, healthy male volunteers): 10 to 12 h
tolerability ([4]; i.v. infusion, healthy volunteers, listed as WK-UK1, hydrochloride): well tolerated
tolerability ([4]; i.v. infusion, healthy volunteers, listed as WX-UK1, hydrochloride): very well tolerated
renal excretion of the parent compound ([4]; share of the dose): less then one percent
effect on the growth of OV-MZ-6 cells ([5]; compared with the solvent alone (FIG. 1)): no effect
cytotoxicity ([5]; concentrations up to 40 μM): not cytotoxic
